Source: paper PMC2574930 (Cancer, 2008)

Columns and labels:
sst1 = conditions: read-out: sst1 receptor subtype specificity (IC50); human receptor; cited from earlier work
sst3 = conditions: read-out: sst3 receptor subtype specificity (IC50); human receptor; cited from earlier work
[1] = test system: ERK1/2 phosphorylation in KRJ-I cells; test: ELISA; assay type: cell-based, human
sst5 = conditions: read-out: sst5 receptor subtype specificity (IC50); human receptor; cited from earlier work
sst4 = conditions: read-out: sst4 receptor subtype specificity (IC50); human receptor; cited from earlier work
[2] = test system: Ki67 transcript in KRJ-I cells; test: Real-time PCR Ki67 transcripts, KRJ-I; assay type: cell-based, human
sst2 = conditions: read-out: sst2 receptor subtype specificity (IC50); human receptor; cited from earlier work
[3] = test system: p21^WAF1/CIP1 transcript in NCI-H727 cells; test: Real-time PCR p21WAF1/CIP1 transcripts, NCI-H727; assay type: cell-based, human; conditions: NCI-H727, 24 hrs
[4] = test system: ERK1/2 phosphorylation in NCI-H727 cells; test: ELISA; assay type: cell-based, human; conditions: NCI-H727, 30 mins
NCI-H727 cells = test: MTT proliferation assay, NCI-H727; assay type: cell-based, human; conditions: 72 hours incubation, drug applied every 24 hrs, 10^−10 to 10^−6
[5] = test system: p21^WAF1/CIP1 transcript in NCI-H720 cells; test: Real-time PCR p21WAF1/CIP1 transcripts, NCI-H720; assay type: cell-based, human
[6] = test system: Ki67 transcript in NCI-H720 cells; test: Real-time PCR Ki67 transcripts, NCI-H720; assay type: cell-based, human
[7] = test system: p21^WAF1/CIP1 transcript in KRJ-I cells; test: Real-time PCR p21WAF1/CIP1 transcripts, KRJ-I; assay type: cell-based, human; conditions: IC50 concentration, 24 hrs, p<0.01 vs. control, Mean±SEM, n=4

| Compound | IC50 (sst1) [nM] | IC50 (sst3) [nM] | Activation of ERK1/2 signaling, vs. control ([1]; IC50 concentration, 30 mins, p=0.05 vs. control, Mean±SEM, n=4) [%] | IC50 (sst5) [nM] | IC50 (sst4) [nM] | Ki67 transcript down regulated, vs. control ([2]; IC50 concentration, 24 hrs, p<0.01 vs. control, Mean±SEM, n=4) [%] | IC50 (sst2) [nM] | p21^WAF1/CIP1 transcripts [3] | ERK phosphorylation [4] | Effect on NCI-H727 proliferation (NCI-H727 cells) | p21^WAF1/CIP1 transcript levels increased, vs. control ([5]; NCI-H720, IC50 concentration, 24 hr, p<0.01 vs. control, Mean±SEM, n=4) [%] | Ki67 transcript levels decreased, vs. unstimulated cells ([6]; NCI-H720, IC50 concentration, 24 hr, p<0.01, Mean±SEM, n=4) [%] | p21^WAF1/CIP1 transcripts elevated, vs. control [7] [%] | Inhibition of lanreotide-activated ERK1/2 signaling by PD98059 ([1]; PD98059 pre-incubated 10 min prior to lanreotide) | Inhibition of lanreotide Ki67 down regulation by PD98059 ([2]; p<0.05 vs. lanreotide alone) | Reversal of lanreotide-induced p21^WAF1/CIP1 increase by PD98059 ([5]; NCI-H720, p<0.05 vs. lanreotide alone) | Ki67 transcript decrease by lanreotide when inhibited by PD98059 ([6]; NCI-H720, lanreotide 24 hr with PD98059, p<0.05 vs. lanreotide alone) [%] |
| --- | --- | --- | --- | --- | --- | --- | --- | --- | --- | --- | --- | --- | --- | --- | --- | --- | --- |
| CC(C)[C@@H]1NC(=O)[C@H](CCCCN)NC(=O)[C@@H](Cc2c[nH]c3ccccc23)NC(=O)[C@H](Cc2ccc(O)cc2)NC(=O)[C@@H](NC(=O)[C@H](N)Cc2ccc3ccccc3c2)CSSC[C@@H](C(=O)N[C@H](C(N)=O)[C@@H](C)O)NC1=O [Lanreotide] | > 1000 | 98 | 25±8 | 12.7 | > 1000 | 73±12 | 0.75 | not significantly up-regulated | no effect | No effect | 140±27 | 45±7 | 175±21 |  |  |  |  |
| COc1cccc(-c2cc(=O)c3ccccc3o2)c1N [PD98059] |  |  |  |  |  |  |  |  |  |  |  |  |  | could be inhibited | inhibited | reversible | 6±2 |
| Somatostatin-14 | 1.95 | 1.2 |  | 1.41 | 1.77 |  | 0.25 |  |  |  |  |  |  |  |  |  |  |
| Somatostatin-28 | 1.86 | 1.3 |  | 0.4 | 5.4 |  | 0.31 |  |  |  |  |  |  |  |  |  |  |
